What all share (assay type): cell-based
The test system of test [1] is Aspergillus fumigatus (ATCC 204305). Kind of test: Anti-fungal susceptibility test (microdilution), fungus H. Particulars: Aspergillus fumigatus, ATCC204305, no visible growth after 72 hours at 35° C, read-out: MIC. On the procedure:
(§1) The antifungal activities of the test compounds (compounds of the invention and known prior art compounds) were measured according to standard microdilution methods (Cryptococcus/Aspergillus: Ghannoum et al., Journal of Clinical Microbiology 1992, 30 (11): 2881-2886; Candida: Reference method for broth dilution susceptibility testing of yeast: proposed standard, NCCLS document M27-P, National Committee for Clinical Laboratory Standards 1992, Villanova, Pa).
(§2) A serial dilution series starting from 64 µg/mL test compound per well down to 0.125 µg/mL test compound per well was applied for each test compound on each fungus. The MIC of each compound was defined as the concentration which produces no visible growth after 48 hours (Candida) and 72 hours (Cryptococcus, Aspergillus) of culture at 35° C.
(§3) The following fungi were assessed: • A) Candida albicans (ATCC 10231) • B) Candida albicans (ATCC 90028) • C) Candida albicans (strain TS3, Shrikantha et al., Journal of Bacteriology 2000, 182(6):1580-1591) • D) Candida parapsilosis (ATCC 22019) • E) Cryptocoocus neoformans (ATCC 90112) • F) Cryptocoocus neoformans (strain H99; Ganendren et al., Antimicrobial Agents and Chemotherapy, 2004, 48(5):1561-1569) • G) Cryptocoocus gattii (ATCC 32608) • H) Aspergillus fumigatus (ATCC 204305) • I) Aspergillus fumigatus (strain 322-384)
A general note: Dilution methods test growth across graded concentrations, often in twofold steps.

The test system of test [2] is KB/HeLa (ATCC CCL17, human cervix carcinoma). Kind of test: XTT cytotoxicity assay, KB/HeLa cells. The note with it: 48 h, 2 days of continuous drug exposure. On the procedure: (§4) Human tumor cell lines KB/HeLa (ATCC CCL17, human cervix carcinoma), PC3 (ATCC CRL1435, human prostate carcinoma) and RKOp21 (human colon adenocarcinoma) cells were used in an automated XTT screening assay for the assessment of cytotoxicity.
(§5) The XTT assay quantifies cellular metabolic activity which correlates with cell viability and cell number. Test compounds (selected compounds of the invention and known substances as controls) are dissolved in culture medium at 600µM and added to the tumor cells in 10 different concentrations in a semi-logarithmic fashion starting from 100 µM as highest concentration.
(§6) 48h later cellular metabolic activity of cells treated with test compounds is quantified by measurement of the absorbance at 490nm (conversion of XTT dye) in comparison to untreated control cells (100% viability).
(§7) KB/HeLa and PC3 cells were cultivated in RPMI medium supplemented with 10% heat inactivated fetal calf serum, 2 mM glutamine, 100 U/ml penicillin, and 100 µg/ml streptomycin. RKOp21 cells were grown in DMEM supplemented with 10% heat inactivated fetal calf serum, 2 mM glutamine, 100 U/ml penicillin, and 100 µg/ml streptomycin. All cells were cultured at 37°C in 5% CO2 humidified air.
(§8) On the first day of the experiment cells were harvested from exponential phase cultures by trypsination, counted and plated into 96 well flat-bottom micro titer plates depending on the cell line as listed below:
(§9) After a 24h recovery to allow the cells to resume exponential growth, the test compounds were diluted immediately prior to use and transferred in 25µl volume to the wells.
(§10) Following 2 days of continuous drug exposure 50µl of freshly prepared XTT-PMS solution (2% […] PMS in PBS + 98% 1 mg/ml XTT in RPMI 1640 without phenol red) was added to the wells. To measure the proportion of living cells, the cells were incubated for 3 h with XTT-PMS reagent at 37°C, 5% CO2, humidified atmosphere allowing to form the formazan salt. The amount of soluble formazan salt produced by cellular reduction of XTT is quantified by measuring the absorbance at 490nm using the Biomek® 2000 ELISA plate reader.
(§11) %-inhibition (cytotoxicity) of each test compound was calculated in relation to untreated control cells. Inhibition curves were generated and IC50 values calculated by using GraphPad Prism.

Test [3] has as its system Aspergillus fumigatus (strain 322-384). Kind of test: Anti-fungal susceptibility test (microdilution), fungus I. The note with it: Aspergillus fumigatus, no visible growth after 72 hours at 35° C, read-out: MIC. On the procedure: as §1, §2, §3
The subject of test [4] is Candida albicans (ATCC 10231). Kind of test: Anti-fungal susceptibility test (microdilution), fungus A. The note with it: Candida albicans, ATCC10231, no visible growth after 48 hours at 35° C, read-out: MIC. As to the method:
as §1, §2, §3

Test [5] deals with Candida albicans (ATCC 90028). Kind of test: Anti-fungal susceptibility test (microdilution), fungus B. Particulars: Candida albicans, ATCC90028, no visible growth after 48 hours at 35° C, read-out: MIC. On the procedure:
as §1, §2, §3

Test [6] concerns Candida albicans (strain TS3). Kind of test: Anti-fungal susceptibility test (microdilution), fungus C. The note with it: Candida albicans, no visible growth after 48 hours at 35° C, read-out: MIC. On the procedure:
as §1, §2, §3

Test [7] has as its system RKOp21 (human colon adenocarcinoma) cells. Kind of test: XTT cytotoxicity assay, RKOp21 cells. The note with it: 48 h, 2 days of continuous drug exposure. On the procedure:
as §4, §5, §6, §7, §8, §9, §10, §11
On the technique in general: Tetrazolium dyes change colour on reduction, which living cells bring about.

In test [8] the test system is Plasmodium falciparum (strain K1). Briefly: In vitro drug susceptibility assay, protozoon C (3[H]-hypoxanthine method). As to the method:
(§12) Plasmodium falciparum strain K1 and strain 3D7 parasites were cultured according to Trager W and Jensen JB (Science 1976, 193: 673-675). In vitro drug susceptibility assays with the test compounds were carried out according to Korsinczky M et al. (Antimicrobial agents and chemotherapy 2000, 44(8): 2100-2108) and Fivelman QL et al. (Antimicrobial agents and chemotherapy 2004, 48(11): 4097-4102) using a ^3[H]-hypoxanthine radioisotope method. ED50 values were calculated with Msxlfit (IDBS).
(§13) The following protozoa were assessed: • A) Trypanosoma cruzi (Tulahuan-LACZ amstigotes in PEM, Lorente SO et al., Antimicrobial agents and chemotherapy 2004, 48(8): 2937-2950; Buckner et al., Infection and Immunity 1999, 67(1): 403-409; Buckner et al., Antimicrobial Agents and Chemotherapy 1996, 40(11): 2592-2597) • B) Trypanosoma brucei rhodesiense (strain STIB900, Lorente SO et al., Antimicrobial agents and chemotherapy 2004, 48(8): 2937-2950; Habtemariam S, BMC Pharmacology 2003, 3:6) • C) Plasmodium falciparum (strain K1, Korsinczky M et al., Antimicrobial agents and chemotherapy 2000, 44(8): 2100-2108; Thaitong S and Beale GH, Trans. R. Soc. Trop. Med. Hyg. 1981, 75: 271-273; Trager W and Jensen JB, Science 1976, 193: 673-675) • D) Plasmodium falciparum (strain 3D7, Mu et al., PLoS Biology 2005, 3(10): e335)

For test [9], the system named is Plasmodium falciparum (strain 3D7). Briefly: In vitro drug susceptibility assay, protozoon D (3[H]-hypoxanthine method). On the procedure: as §12, §13
The subject of test [10] is Cryptocoocus neoformans (strain H99). Briefly: Anti-fungal susceptibility test (microdilution), fungus F. Particulars: fungus F; no visible growth after 72 hours at 35° C; read-out: MIC. As to the method:
as §1, §2, §3

Test [11] has as its system Cryptocoocus neoformans (ATCC 90112). Kind of test: Anti-fungal susceptibility test (microdilution), fungus E. The note with it: fungus E; no visible growth after 72 hours at 35° C; read-out: MIC. As to the method:
as §1, §2, §3

By MIC is commonly meant the lowest concentration found to suppress growth. In general, IC50 refers to the concentration that gives 50% inhibition.

Molecules are shown by their SMILES. In brackets after ≈: the same amount, converted by molar mass.

In the case of `CCCCCCCCCCCCCCCCOP(=O)([O-])OCC[N+]1(C)CCCCC1` [Compound 2, Phosphoric acid 2-(1-methyl-piperidin-1-yl)-ethyl ester hexadecyl ester], the minimal inhibitory concentration (MIC) in [1] is 2 µg/mL (≈ 4.47 µM); in test [3], 2 µg/mL (≈ 4.47 µM); in test [4] it was 1 µg/mL (≈ 2.23 µM); in test [5], 1 µg/mL (≈ 2.23 µM); in [6] it was 1.5 µg/mL (≈ 3.35 µM); in test [10] it was 1 µg/mL (≈ 2.23 µM). Also, in test [11], the minimum inhibitory concentration (MIC) amounted to 1.5 µg/mL (≈ 3.35 µM). For the same compound, the IC50 came out at 5.02 µM in [2] and 40.9 µM in test [7]. Moreover, the “ED50 (µg/mL)” value is given as 19,36 µg/mL in test [8] and 2,21 µg/mL in test [9].

Source of the values: patent EP1800684A1, “Novel alkyl phospholipid derivatives and uses thereof” (Zentaris GmbH, priority 2005, dated 2007).
